Laboratory results as given in PubChem BioAssay (NCI).
Where “and” joins values, the source holds several entries; their conditions need not be identical. Identical values can stand only once.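 Tested at 5 concentrations; 48 h exposure; 96-well plates; endpoints linearly interpolated, else capped at highest concentration. GI50 marks 50% less growth. Definition used: TGI = concentration required for complete inhibition of growth.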

Experiments:
Experiment in all cases: NCI anticancer screen, dose series, 48 h
SNB-19 CNS = tested on: SNB-19 CNS
MCF7 breast = tested on: MCF7 breast
CAKI-1 renal = tested on: CAKI-1 renal
OVCAR-5 ovarian = tested on: OVCAR-5 ovarian
MOLT-4 leukemia = tested on: MOLT-4 leukemia
OVCAR-8 ovarian = tested on: OVCAR-8 ovarian
MALME-3M melanoma = tested on: MALME-3M melanoma
SR leukemia = tested on: SR leukemia
SK-MEL-2 melanoma = tested on: SK-MEL-2 melanoma
NCI-H460 lung = tested on: NCI-H460 lung

Structure (SMILES)	GI50 (SNB-19 CNS)	TGI (SNB-19 CNS)	GI50 (MCF7 breast)	TGI (MCF7 breast)	GI50 (CAKI-1 renal)	TGI (CAKI-1 renal)	GI50 (OVCAR-5 ovarian)	TGI (OVCAR-5 ovarian)	GI50 (MOLT-4 leukemia)	TGI (MOLT-4 leukemia)	GI50 (OVCAR-8 ovarian)	TGI (OVCAR-8 ovarian)	GI50 (MALME-3M melanoma)	TGI (MALME-3M melanoma)	GI50 (SR leukemia)	TGI (SR leukemia)	GI50 (SK-MEL-2 melanoma)	TGI (SK-MEL-2 melanoma)	GI50 (NCI-H460 lung)	TGI (NCI-H460 lung)
OC(c1cc(C(F)(F)F)nc2c(C(F)(F)F)cccc12)C1CCCCN1 (stereo unspecified)	2.75 µM	8.22 µM	1.85 µM	3.49 µM	1.78 µM	4.67 µM	2.88 µM	10.4 µM	2.77 µM	6.53 µM	1.97 µM	4.24 µM	2.6 µM	7.36 µM	3.59 µM	8.27 µM	2.31 µM	4.16 µM	2.07 µM	4.14 µM
c1ccc(Nc2ncc(-c3ccccc3)o2)cc1	> 25 µM	> 25 µM	12.4 µM	> 25 µM	17.8 µM	> 25 µM	> 25 µM	> 25 µM	> 25 µM	> 25 µM	> 25 µM	> 25 µM	> 25 µM	> 25 µM	> 20.6 µM	> 25 µM	> 25 µM	> 25 µM	25 µM	> 25 µM
COc1ccc(Cn2c(Br)c3c(c2Br)-c2nc(N)sc2CC3)cc1	8.68 µM	> 100 µM	3.58 µM	17.6 µM	2.9 µM	10.4 µM	16 µM	50.5 µM	0.962 µM	21.7 µM	3.43 µM	18.4 µM	5.22 µM	19.9 µM	0.84 µM	> 100 µM	5.56 µM	19.9 µM	3.88 µM	17.3 µM
Cc1cc(Nc2ccc(C)c(Cl)c2)n2nc(C(F)(F)F)nc2n1	29.4 µM	> 100 µM	22.7 µM	> 100 µM	14.6 µM	34.7 µM	38 µM	> 100 µM	19.9 µM	94.3 µM	29.3 µM	> 100 µM	30.4 µM	97.9 µM	18.4 µM	57 µM	22.9 µM	55.4 µM	20.9 µM	78.7 µM
c1ccc(-c2n(Cc3ccc4ccccc4n3)cc[n+]2Cc2ccc3ccccc3c2)cc1	0.865 µM	3.54 µM	1.21 µM	3.43 µM	1.59 µM	3.54 µM	2.05 µM	7.27 µM	1.64 µM	4.38 µM	1.63 µM	4.4 µM	0.81 µM	2.78 µM	0.573 µM	3.11 µM	1.2 µM	3.12 µM	1.79 µM	5.8 µM
COc1cc2c(cc1OC)-c1cc(OC)c(OC)cc1C(CN(C)C)C2 (stereo unspecified)	> 10 µM	> 10 µM	> 10 µM	> 10 µM	> 10 µM	> 10 µM	> 10 µM	> 10 µM	> 10 µM	> 10 µM	> 10 µM	> 10 µM	> 10 µM	> 10 µM	> 10 µM	> 10 µM	> 10 µM	> 10 µM	> 10 µM	> 10 µM
COc1ccc2ncnc(Nc3ccc(OCc4ccccc4)cc3)c2c1	9.78 µM	> 25 µM	7.49 µM	> 25 µM	3.85 µM	> 17.2 µM	6.57 µM	> 22.6 µM	7.56 µM	> 23.5 µM	8.39 µM	> 25 µM	10.1 µM	> 25 µM	11.6 µM	> 25 µM	9.97 µM	> 25 µM	7.58 µM	> 25 µM
CC(=O)OCc1ccc2c(c1)C(O)NC(=O)O2 (stereo unspecified)		> 100 µM		> 100 µM		> 100 µM		> 100 µM		> 100 µM		> 100 µM		> 100 µM		> 100 µM		> 100 µM		> 100 µM
COC(=O)c1cc2oc(/C=C3/SC(=S)N(NC(C)=O)C3=O)cc2n1C	31.6 µM	> 100 µM	11.6 µM	> 100 µM	10 µM	36.9 µM	21.7 µM	54.9 µM	11.3 µM	62.1 µM	23.1 µM	99.1 µM	10.8 µM	52 µM	3.32 µM	> 100 µM	23.9 µM	> 100 µM	8.26 µM	> 100 µM
NC(=S)N/N=C\c1nccc2c(C(F)(F)F)cccc12	0.382 µM	> 100 µM	0.317 µM	13.3 µM	0.312 µM	8.73 µM	0.445 µM	27.6 µM	0.355 µM	15.6 µM	0.308 µM	24 µM	0.435 µM	> 34.5 µM	0.0997 µM	> 37 µM	0.461 µM	8.34 µM	0.26 µM	8.59 µM
COc1c2ccccc2c(OC)c2[nH]c(=O)ccc12	2.02 µM	4.11 µM	4.37 µM	> 54.8 µM	16.2 µM	> 90.6 µM	8.02 µM	> 85.4 µM	> 21.5 µM	> 100 µM	13.6 µM	> 100 µM	0.578 µM	1.78 µM	6.61 µM	> 100 µM	4.92 µM	> 75.8 µM	1.51 µM	4 µM
O=C(Nc1cccc(C(F)(F)F)c1)Nc1cccc(C(F)(F)F)c1	0.658 µM	9.93 µM	0.852 µM	10 µM	1.81 µM	11.2 µM	3.24 µM	14.8 µM	1.34 µM	6.44 µM	1.06 µM	10.4 µM	1.36 µM	3.92 µM	1.77 µM	7.56 µM	1.84 µM	4.73 µM	0.441 µM	5.73 µM
CC(=C(c1ccc(OCCN2CCCCC2)cc1)c1ccc(OCCN2CCCCC2)cc1)c1ccc(Cl)cc1	0.438 µM	0.81 µM	0.297 µM	0.682 µM	0.397 µM	0.74 µM	0.417 µM	0.771 µM	0.449 µM	0.982 µM	0.484 µM	1.04 µM	0.419 µM	0.798 µM	0.195 µM	0.707 µM	0.459 µM	0.909 µM	0.452 µM	0.844 µM
O=C1NC(=NCc2ccccc2)S/C1=C\c1ccc2ncccc2c1	> 25 µM	> 25 µM	> 25 µM	> 25 µM	> 25 µM	> 25 µM	> 25 µM	> 25 µM	> 25 µM	> 25 µM	> 25 µM	> 25 µM	> 25 µM	> 25 µM	1.05 µM	> 25 µM	> 25 µM	> 25 µM	> 25 µM	> 25 µM
COC(=O)[C@]12CC[C@@H](C)[C@H](C)[C@@H]1C1=CC[C@@H]3[C@@]4(C)C[C@@H](O)[C@H](O)[C@@](C)(CO)[C@@H]4[C@H](O)C[C@@]3(C)[C@]1(C)CC2	13.2 µM	38.9 µM	12.1 µM	41 µM	13.1 µM	27.3 µM	17.9 µM	36.4 µM	4.58 µM	25.6 µM	17.7 µM	41.1 µM	13 µM	32 µM	11.9 µM	40.8 µM	22.6 µM	48.3 µM	14.8 µM	33.6 µM
C=C(C)C(=O)O[C@@H]1C[C@@]2(C)O[C@@H]2C[C@H](O)/C(C)=C/[C@H]2OC(=O)C(=C)[C@@H]21		> 100 µM		> 100 µM		67.4 µM		> 100 µM		> 100 µM		> 100 µM		57.2 µM		> 100 µM		> 100 µM		> 100 µM
Nc1nc2[nH]cc(CCc3ccc(C(=O)N[C@@H](CCC(=O)O)C(=O)O)cc3)c2c(=O)[nH]1		> 100 µM	0.0246 µM	> 100 µM	0.0845 µM	> 100 µM		> 100 µM	0.53 µM	> 100 µM	0.154 µM	> 100 µM		> 100 µM		> 100 µM		> 100 µM	0.272 µM	> 100 µM
COc1cc(-c2nn(-c3cccc(NC(=O)c4ccccc4)c3)cc2-c2ccncc2)ccc1Cl	1.37 µM	> 100 µM	0.344 µM	> 100 µM	0.836 µM	> 40.5 µM	12.8 µM	> 100 µM	0.701 µM	> 100 µM	0.995 µM	> 100 µM	0.344 µM		0.25 µM	> 100 µM	0.326 µM	2.1 µM	0.366 µM	> 33.2 µM
O=C(Nc1nn2c(-c3cc(C(F)(F)F)cc(C(F)(F)F)c3)nnc2s1)C1CCCC1	0.614 µM	> 100 µM	0.512 µM	> 33.7 µM	0.311 µM	> 65.2 µM	2.63 µM	> 100 µM	0.643 µM	4.53 µM	1.18 µM	> 100 µM	0.27 µM	2.93 µM	0.942 µM	6.21 µM	0.529 µM	2.4 µM	0.473 µM	> 100 µM
O=[N+]([O-])c1cc([N+](=O)[O-])c(C(F)(F)F)cc1NN=C(c1ccc(O)cc1)c1ccc(O)cc1	4.67 µM	16.6 µM	2.63 µM	7.73 µM	3.34 µM	15.3 µM	11 µM	50 µM	1.8 µM	5.77 µM	4.2 µM	> 100 µM	4.72 µM	35.1 µM	1.55 µM	6.42 µM	2.56 µM	5.99 µM	2.05 µM	5.13 µM
CCNC(=O)C#Cc1ccc2c(C(=Nc3ccc(CN(C)C)cc3)c3ccccc3)c(O)[nH]c2c1	0.206 µM	> 5.9 µM	0.0458 µM	4.59 µM	0.119 µM	> 9.05 µM	0.0262 µM	0.732 µM	0.199 µM	2.76 µM	1.04 µM	> 10 µM	0.00358 µM	0.0268 µM	0.00778 µM	2.93 µM	0.0323 µM	0.228 µM	0.0106 µM	1.96 µM
NC(N)=NS(=O)(=O)c1ccc(N=Nc2c(O)c(C(=O)O)cc3ccccc23)cc1				> 100 µM		> 100 µM		> 100 µM		> 100 µM		> 100 µM		> 100 µM		> 100 µM		> 100 µM		> 100 µM
C=CC(=O)Nc1cc(Nc2nccc(-c3cn(C)c4ccccc34)n2)c(OC)cc1N(C)CCN(C)C	2.69 µM and 2.06 µM	18.4 µM and > 10 µM	1.5 µM and 1.48 µM	3.47 µM and 3.6 µM	0.343 µM and 0.916 µM	6.75 µM and 2.49 µM	1.3 µM and 1.29 µM	2.95 µM and 6.55 µM	1.77 µM and 1.49 µM	5.08 µM and 3.66 µM	2.04 µM and 1.57 µM	5.89 µM and 4.18 µM	2.16 µM and 1.71 µM	3.97 µM and 3.28 µM	1.29 µM and 1.62 µM	4.94 µM and 3.77 µM	2.08 µM and 1.94 µM	4.04 µM and 3.87 µM	2.18 µM and 2.14 µM	5.15 µM and 6.09 µM
COc1cc2c(cc1OC)C(Cl)C(c1ccc(F)cc1)=C2Cl (stereo unspecified)		37.5 µM		23.9 µM		29.1 µM		30.2 µM		13.1 µM		36.8 µM		28.7 µM		14.3 µM		26.5 µM		24.8 µM
COc1ccccc1NC(=O)c1cc2cc(Br)ccc2cc1O	3.46 µM	16.1 µM	1.76 µM	9.3 µM	1.42 µM	4.69 µM	3.48 µM	12.9 µM	2.7 µM	17.3 µM	3 µM	14.7 µM	1.39 µM	4.87 µM	0.809 µM	9.14 µM	2.03 µM	5.51 µM	2.15 µM	6.77 µM
CC(C)(C)[Si](C)(C)OC1[C@@H](O[Si](C)(C)C(C)(C)C)[C@@H](CNC(=O)NC(=O)C(F)(F)F)O[C@H]1n1cnc2c(NC(=O)Nc3ccccc3)ncnc21 (stereo partly specified)			2.05 µM	8.07 µM	8.24 µM	17 µM	7.89 µM	14.6 µM	1.67 µM	7.03 µM	7.76 µM	16.7 µM	10.4 µM	19.5 µM	1.52 µM	5.25 µM	9.37 µM	17.3 µM	6.39 µM	15.7 µM
